This note sets out measurements from patent publication USRE50172E1, “In vitro maturation of a mammalian cumulus oocyte complex” (Vrije Universiteit Brussel, priority 2014, dated 2024).

Entries after “also recorded” stand apart in the source; their conditions may differ. No end group written: not given here. Where only a bound is given, the exact number is not on record here.

Common to all, as to type: cell-based, mouse
The test system of assay [1] is COCs from early antral follicles. Briefly: Cumulus-oocyte connections (transzonal projections) after capacitation culture with CNP or PDE3 inhibitor (Example 2). The note with it: 48 h culture, F-actin staining of zona pellucida, no FSH; listed as CNP. As to the method: Basal culture medium for the culture of COCs (Pre-IVM and IVM phases) consisted of α-MEM, 2.5% FBS (both from Life Technologies, Gent, Belgium) and 5 ng/mL Insulin, 5 ug/mL Apo-Transferrin, 5 ng/mL Sodium selenite (All from Sigma, Schnelldorf, Germany). Capacitation medium consisted of basal medium supplemented with either 25 nM CNP or 1 μM Org9935 or 1 μM Cilostamide in combination with 10 nM E2 17-β-estradiol. CNP was obtained from Phoenix Europe (Karlsruhe, Germany), while Cilostamide was obtained from Enzo Life Sciences (Antwerpen, Belgium). Since the aim of the experiment was to make evident potential differences between CNP and PDE3-inhibitors, avoiding potential interference of FSH was crucial, therefore the latter was omitted from capacitation medium. When tested in the presence of FSH, the latter masked the effect of CNP on the connection between the oocyte and surrounding layers of cumulus cells, in having itself a contribution to said connection which is even apparent in the presence of a PDE3-inhibitor (data not shown). […]
In FIG. 7 average pixel intensity was used as a tool to quantify positive actin staining (TZP) going through zona pellucida. […]

Assay [2] has as its system Pre-ovulatory COCs. Briefly: Meiotic arrest of pre-ovulatory COCs cultured 18 hours with CNP-22 (Example 1). The text has this:
(§1) For the collection of immature COCs, compact COCs of the first wave of follicular development were collected from small antral follicles of pre-pubertal mice (19-21 days-old), without prior gonadotropin administration. For the collection of pre-ovulatory COCs (controls), compact COCs were collected by puncturing large antral follicles of pre-pubertal female mice (25-27 days-old) following 48 hrs of priming with 2,5IU 2.5 IU equine Chronic Gonadotropin (eCG, Folligon, Intervet, Oss, The Netherlands). Collection medium consisted of Leibovitz L-15, containing 10% Heat-inactivated Foetal Bovine Serum (FBS), 100lU/ml 100 IU/ml penicillin, 100 μg/ml streptomycin (all from Life Technologies, Gent, Belgium) and supplemented with 200 μM 3-Isobutyl-1-methylxanthine (IBMX; Sigma, Schnelldorf, Germany) to prevent meiosis reinitiation during the period of collection and pre culture handling.
(§2) Basal culture medium for the culture of COCs (Pre-IVM and IVM phases) consisted of α-MEM, 2.5% FBS (both from Life Technologies, Gent, Belgium) and 5 ng/mL Insulin, 5 ug/mt ug/ml. Apo-Transferrin, 5 ng/mL Sodium selenite (All from Sigma, Schnelldorf, Germany).
(§3) At specified time-points oocytes were mechanically freed from compact or expanded cumulus cells by using a mouth controlled fine bore glass pipette. Meiotic reinitiation was analyzed by assessing the nuclear maturational stage under an inverted microscope equipped with a Hoffman modulation contrast system (Nikon, Tokyo, Japan). Nuclear maturation was scored as GV (Germinal vesicle stage), GVBD (when GV non visible), PB (first polar body observed in perivitelline space) or DEG (when the oocyte was degenerated).
(§4) Pre-ovulatory COCs, retrieved from gonadotropin-primed mice (aged 26-27 days-old), were placed in culture, for 18 hours, in presence of 0 (Control), 1, 10, 100 nM CNP-22 and in combination with 4 ng/mL EGF.

Assay [3] relates to Preovulatory COCs. Briefly: Meiotic resumption after 18 hours, CNP-53 dose range (Example 5). How it is done: The materials and methods used in this further example are accordingly in common with the materials and methods used in Example 4 but for the use of CNP-53 instead. Cumulus-oocyte complexes from 24-25 day-old mice were isolated from in vivo grown antral follicles post 48 h eCG stimulation. Mice were injected with 2.5 IU eCG when they were 22-23 days-old. Intact COCs were put in culture for a period of 18 hours in presence of the following doses of CNP-53: • Control (No CNP)* • 0.1 nM • 1 nM • 10 nM • 50 nM • 100 nM • 1 μM • Control 25 nM CNP-22*
*Two control conditions were included: 1) 25 nM CNP-22 (standard dose known and used in previous experiments to maintain meiotic arrest), 2) a control condition where CNP is not present in the culture media.
Differences in the rate of oocyte meiotic resumption (per meiotic stage) were assessed by ANOVA followed by a Tukey's Multiple Comparison Test, p<0.001. Percentages data were transformed (arcsine) before performing statistical analysis.

Assay [4] deals with cumulus-enclosed oocytes from early antral follicles. Briefly: Developmental competence after capacitation culture with CNP or Cilostamide, IVM and IVF (Example 3). To be noted: 48 hours capacitation culture, IVM with EGF, IVF. How it is done:
Immature cumulus-oocyte complexes were isolated from early antral follicles (from unstimulated 19-20 day-old mice). COCs were placed in basal culture medium for a period of 48 hours in presence of either CNP or Cilostamide (PDE3-Inhibitor); similar to example 2.
Following the capacitation culture, COCs were matured in presence of Epidermal growth factor (EGF) and in-vitro fertilized. Post fertilization embryo development was evaluated.
Acquisition of oocyte competence under each condition was evaluated by their capacity to mature, fertilize (2-cell rate) and to produce good quality blastocyst (by day 5 of embryo culture).
Differences in the rate of fertilization and blastocyst formation between CNP and Cilostamide groups were assessed by chi-square.

Assay [5] relates to Pre-ovulatory COCs. Briefly: EGFR-dependent meiotic resumption of pre-ovulatory COCs in presence of CNP-22 and EGF. The note with it: for PB rate: 18 hours.
Description: as §1, §2
For experiments involving IVM, recombinant Epidermal growth Factor (r-EGF) (Roche; Mannheim, Germany) and recombinant mouse Epiregulin (EREG) (R&D systems Europe; Oxon, United Kingdom) were used as ovulatory stimuli and the cultures lasted 18 hrs.
as §3, §4
Pre-ovulatory COCs, retrieved from gonadotropin-primed mice, were placed in culture in absence (controls) or presence of 25 nM CNP-22 4 ng/mL EGF, and meiotic maturation was assessed at 2, 4 and 6 hours. While meiotic resumption increased from 2 to 6 hours in the control group, few GVBDs were induced in the CNP-22 EGF treated group (≤11%), within the same period of time (FIG. 2A).

Assay [6] concerns Preovulatory COCs. Briefly: Meiotic resumption after 18 hours, CNP-22 dose range (Example 4). As to the method:
The materials and methods used in this further example are accordingly in common with the materials and methods used in Example 1. Cumulus-oocyte complexes from 24-26 day-old mice were isolated from in vivo grown antral follicles post 48 h equine Chronic Gonadotropin stimulation (eCG, Folligon, Intervet, Oss, The Netherlands). Mice were injected with 2.5 IU eCG when they were 22-24 days-old. Intact COCs with at least 2 layers of cumulus cells were put in culture for a period of 18 hours in presence of the following doses of CNP: • Control (No CNP)* • 0.1 nM** • 1 nM • 10 nM • 50 nM** • 100 nM • 1 μM**
COCs were collected and cultured according to the previous dose experiments in mice, provided in the Example 1.
Differences in the rate of oocyte meiotic resumption (per meiotic stage) were assessed by ANOVA followed by a Tukey's Multiple Comparison Test, p<0.01. Percentages data were transformed (arcsine) before performing statistical analysis.
Oocyte meiotic arrest was confirmed by the presence of an intact germinal vesicle (GV) under the inverted microscope, […]

In assay [7] the test system is Immature COCs. Briefly: Meiotic arrest of immature COCs from small antral follicles, 48 hours culture.
Description: as §1, §2
At specified time-points oocytes were mechanically freed from compact or expanded cumulus cells by using a mouth controlled fine bore glass pipette. Meiotic reinitiation was analyzed by assessing the nuclear maturational stage under an inverted microscope equipped with a Hoffman modulation contrast system (Nikon, Tokyo, Japan). Nuclear maturation was scored as GV (Germinal vesicle stage), GVBD (when GV non visible), PB (first polar body observed in perivitelline space) or DEG (when the oocyte was degenerated). […]
Immature COCs were retrieved from small antral follicles of female mice aged 19-20 days-old and placed in culture for 48 hours in presence of 25 nM CNP-22 and presence or absence of 10 nM 17-β-estradiol; additionally the effects of the further addition of 2.5 or 5 mlU/mL mIU/ml FSH and/or 50 ng/mL GDF9 were evaluated.

[8] abbreviates: 1 nM, 10 nM, 50 nM and 100 nM, 18 hours.

As to “C-type natriuretic peptide (GLSKGCFGLKLDRIGSMSGLGC; ends and bridges not checked; cysteine pairing not given here; UniProt P23582 105-126, looked up) [CNP-22, 22 amino acid C-type natriuretic peptide, obtained from Phoenix Europe]”, the “transzonal projections / connectivity between oocytes and cumulus cells” value in assay [1] is “full with transzonal projections; also recorded: kept better the connectivity between oocytes and cumulus cells”. Further, the “GV rate at the end of culture” value in assay [2] (1 nM CNP-22, 18 hours) amounted to 48%; in assay [2] (10 nM CNP-22, 18 hours) it was 93%; in assay [2] (100 nM CNP-22, 18 hours), 96%. Moreover, the “time meiotic arrest is maintained” value in assay [2] (pre-ovulatory COCs) was “at least 24 hours”. Besides, the “oocytes under meiotic arrest (GV rate)” value in assay [3] (25 nM CNP-22 positive control, 18 hours) was 75%. Moreover, the “fertilization rate, CNP vs Cilostamide” value in assay [4] was “no difference”. Also, the “blastocyst formed per fertilized egg, CNP vs Cilostamide” value in assay [4] (day 5) is recorded as “significantly higher”. In addition, the PB rate in assay [5] (1 nM CNP-22 with 4 ng/mL EGF) was determined as 92%; in assay [5] (10 nM CNP-22 with 4 ng/mL EGF), 35%; in assay [5] (100 nM CNP-22 with 4 ng/mL EGF), 15%. In assay [5] (25 nM CNP-22, 4 ng/mL EGF, 2 to 6 hours), the GVBDs induced is listed as at most 11%. Further, in assay [5] (25 nM CNP-22, 4 ng/mL EGF, 24 hours), the “occurrence of PB oocytes” value worked out at 93%. For the same substance, the “delay of EGFR-induced meiotic resumption vs control” value in assay [5] (COCs kept under meiotic arrest by CNP) turned out to be 6 h. For the same substance, the “percentage of oocytes at the GVBD-stage vs control” value in assay [6] (0.1 nM to 1 μM, 18 hours) was “No significant differences”. For the same substance, the “maintaining oocytes arrested at the GV stage” value in assay [6] (0.1 nM, 18 hours) is recorded as “suboptimal”; in assay [6] (1 μM, 18 hours), “suboptimal”. Further, the “oocytes in meiotic arrest (GV rate)” value in assay [6] (1 nM CNP-22, 18 hours) is 80%; in assay [6] (10 nM CNP-22, 18 hours) it was 98%; in assay [6] (50 nM CNP-22, 18 hours) it was 94%; in assay [6] (100 nM CNP-22, 18 hours), 87%. Further, in assay [6] (setting [8]), the “oocytes extruding the first polar body (PB rate)” value is on record as “low proportion or lack”. Also, in assay [6] (dose interval 1 nM to 100 nM), the “rate of meiotic arrest in preovulatory oocytes” value was “above 80%”. Besides, in assay [7] (1 nM, 10 nM, 25 nM, or 50 nM CNP, oocytes from the smallest size of follicles), the “oocytes maintained in meiotic arrest” value is about 100%. In assay [7] (25 nM CNP alone, 48 hours), this substance gave a GV rate of 26%. In addition, the “maintenance of meiotic arrest in immature COCs” value in assay [7] (CNP-22 alone, culture up to 48 hours (data not shown)) is “can maintain meiotic arrest for 24 hours but not for 48 hours”.

Regarding “CNP-53: CNP analogue; endogenous form of C-type natriuretic peptide containing a 53-amino acid sequence (DLRVDTKSRAAWARLLQEHPNARKYKGANKKGLSKGCFGLKLDRIGSMSGLGC; ends and bridges not checked; cysteine pairing not given here; UniProt P23582 74-126, looked up)”, the “percentage of oocytes at the GVBD-stage vs control” value in assay [3] (0.1 nM to 1 μM, 18 hours) is recorded as “No significant differences”. Also, the “maintaining oocytes arrested at the GV stage” value in assay [3] (0.1 nM, 18 hours) is listed as “suboptimal”; in assay [3] (1 μM, 18 hours), “suboptimal”. Besides, the “oocytes under meiotic arrest (GV rate)” value in assay [3] (1 nM CNP-53, 18 hours) is recorded as 66%; in assay [3] (10 nM CNP-53, 18 hours), 98%; in assay [3] (50 nM CNP-53, 18 hours) it was 72%; in assay [3] (100 nM CNP-53, 18 hours) it was 69%. Moreover, in assay [3] (setting [8]), the “proportion of oocytes extruding the first polar body vs control without CNP” value is reported as “significant different”.
